Data taken from the supplement of paper PMC13380429.

How the values were obtained:
Conditions in all cases: 72 h
U2OS [1] = assay: drug sensitivity score (DSS) for viability; higher = more toxic; extreme values may be limits of the assay
Caco-2 [2] = assay: as above
HepG2 [3] = assay: as above
Calu-3 [4] = assay: as above
Vero E6 [5] = assay: as above
U2OS [6] = assay: cell viability relative to DMSO; higher = less toxic
Caco-2 [7] = assay: as above
HepG2 [8] = assay: as above
Calu-3 [9] = assay: as above
Vero E6 [10] = assay: as above
U2OS [11] = assay: relative viability EC50 (midpoint between 100% and the lowest measured viability); higher = less toxic
Caco-2 [12] = assay: as above
HepG2 [13] = assay: as above
Calu-3 [14] = assay: as above
Vero E6 [15] = assay: as above

SMILES | drug sensitivity score (U2OS [1]) | drug sensitivity score (Caco-2 [2]) | drug sensitivity score (HepG2 [3]) | drug sensitivity score (Calu-3 [4]) | drug sensitivity score (Vero E6 [5]) | cell viability (U2OS [6]; 1 nM) | cell viability (U2OS [6]; 10 nM) | cell viability (U2OS [6]; 100 nM) | cell viability (U2OS [6]; 1000 nM) | cell viability (U2OS [6]; 10000 nM) | cell viability (Caco-2 [7]; 1 nM) | cell viability (Caco-2 [7]; 10 nM) | cell viability (Caco-2 [7]; 100 nM) | cell viability (Caco-2 [7]; 1000 nM) | cell viability (Caco-2 [7]; 10000 nM) | cell viability (HepG2 [8]; 1 nM) | cell viability (HepG2 [8]; 10 nM) | cell viability (HepG2 [8]; 100 nM) | cell viability (HepG2 [8]; 1000 nM) | cell viability (HepG2 [8]; 10000 nM) | cell viability (Calu-3 [9]; 1 nM) | cell viability (Calu-3 [9]; 10 nM) | cell viability (Calu-3 [9]; 100 nM) | cell viability (Calu-3 [9]; 1000 nM) | cell viability (Calu-3 [9]; 10000 nM) | cell viability (Vero E6 [10]; 1 nM) | cell viability (Vero E6 [10]; 10 nM) | cell viability (Vero E6 [10]; 100 nM) | cell viability (Vero E6 [10]; 1000 nM) | cell viability (Vero E6 [10]; 10000 nM) | relative viability EC50 (U2OS [11]) | relative viability EC50 (Caco-2 [12]) | relative viability EC50 (HepG2 [13]) | relative viability EC50 (Calu-3 [14]) | relative viability EC50 (Vero E6 [15])
CC(C)[C@H]1c2ccc(F)cc2CC[C@@]1(CCN(C)CCCc1nc2ccccc2[nH]1)OC(=O)C1CC1 [NNC-55-0396] | 5.8 | 5.7 | 6 | 5.5 | 7.3 | 98.9% | 99.1% | 94.4% | 97.2% | 2.8% | 85.5% | 102% | 93.6% | 97.2% | 4.5% | 109% | 104% | 98.7% | 96.8% | 0% | 106% | 105% | 100% | 99.7% | 2.2% | 95.2% | 96.1% | 93.5% | 89.4% | -0.1% | 2.96 µM | 2.95 µM | 2.93 µM | 3.14 µM | 2.29 µM
COc1ccc(COc2ccc(CC#N)cc2)cc1 [O4I1] | 0 | 0 | 0 | 0 | 0.2 | 102% | 106% | 96.2% | 104% | 95.4% | 94.7% | 93.9% | 96.3% | 92.9% | 92.2% | 100% | 97% | 98.6% | 95.4% | 94.7% | 104% | 93.3% | 103% | 89.4% | 102% | 100% | 99.4% | 99.1% | 95% | 87.4% | > 10 µM | > 10 µM | > 10 µM | > 10 µM | > 10 µM
O=C(CCN1CCN(C(=O)OCc2cc(Cl)cc(Cl)c2)CC1)c1ccc2[nH]c(=O)oc2c1 [PF-8380] | 0 | 0 | 0 | 0 | 0 | 98.5% | 101% | 97.9% | 95.6% | 101% | 94.8% | 101% | 91.2% | 98.1% | 94.9% | 99.6% | 96.3% | 93.4% | 105% | 97.3% | 97.5% | 101% | 94.5% | 99.5% | 113% | 106% | 110% | 104% | 103% | 92.7% | > 10 µM | > 10 µM | > 10 µM | > 10 µM | > 10 µM
CC(C)OC(=O)[C@H](C)N[P@@](=O)(OC[C@H]1O[C@@H](n2ccc(=O)[nH]c2=O)[C@](C)(F)[C@@H]1O)Oc1ccccc1 [PSI-7976] | 0 | 0 | 0 | 0 | 0 | 98.2% | 93.6% | 101% | 99% | 96.8% | 105% | 88.7% | 103% | 90.2% | 101% | 89.5% | 103% | 92.6% | 109% | 113% | 104% | 85.4% | 96.7% | 93.3% | 94.2% | 95.2% | 101% | 91.4% | 99% | 108% | > 10 µM | > 10 µM | > 10 µM | > 10 µM | > 10 µM
COc1cc(CN2CCN(c3ccc(F)cc3)CC2)cc(OC)c1OC [V-51] | 0 | 0 | 0 | 0 | 0 | 100% | 103% | 94.8% | 98.6% | 102% | 94.8% | 94.4% | 93.6% | 83.5% | 97.8% | 100% | 98.1% | 93.2% | 100% | 98.8% | 81.8% | 95.7% | 106% | 105% | 105% | 95.9% | 96.5% | 100% | 98.3% | 106% | > 10 µM | > 10 µM | > 10 µM | > 10 µM | > 10 µM
CO[C@H]1CC[C@H](N(c2cc(C3=CCCCC3)sc2C(=O)O)C(=O)[C@H]2CC[C@H](C)CC2)CC1 [VCH-916] | 0 | 0 | 0 | 0 | 0 | 96.2% | 98.7% | 98.6% | 98.6% | 101% | 92.2% | 93.4% | 105% | 95.5% | 105% | 103% | 92.8% | 110% | 110% | 114% | 90.8% | 110% | 107% | 97.5% | 104% | 96.9% | 95.7% | 98.8% | 103% | 110% | > 10 µM | > 10 µM | > 10 µM | > 10 µM | > 10 µM
CCC(=O)NO [ZAMI-633] | 0 | 0 | 0.9 | 0 | 0.1 | 97.5% | 97.9% | 92.8% | 93.3% | 105% | 100% | 96.7% | 93.4% | 96.8% | 127% | 110% | 97% | 104% | 90.6% | 85.1% | 101% | 102% | 94.2% | 93.6% | 97.2% | 110% | 95% | 109% | 97.1% | 89% | > 10 µM | > 10 µM | > 10 µM | > 10 µM | > 10 µM
